“Also recorded” adds a separate entry of the source.
Tested on: multidrug-resistant (MDR) Mycobacterium tuberculosis
Assay type: cell-based
Conditions: Peptide 14D at 1 µg/mL; low inoculum

## wkivfwwrr-CONH2 [Peptide 14D]
  Effect on growth of multidrug-resistant MTB: reducing the lag time before growth starts; also recorded: increased growth

— PMC10536189 (Microorganisms, 2023)
